Measured values: article PMC8261488, “Contraceptive progestins with androgenic properties stimulate breast epithelial cell proliferation” (EMBO Molecular Medicine, 2021)
Where “and” joins values, the source holds several entries; their conditions need not be identical. Equal values may be shown once.

Key:
Rankl [1] = experiment: Rankl transcript levels by RT-PCR in mouse mammary organoids stimulated ex vivo; assay type: cell-based; details: for Rankl transcript levels over vehicle-treated control: BalbC females, 6 h of stimulation
Method: (§1) Next, we stimulated mouse mammary organoids derived from several BalbC females with R5020 or different progestins (Fig 1A). […] No significant change in Rankl and Wnt4 transcript levels was detected during the first 2 h (Appendix Fig S1D). By 6 h of R5020 stimulation, Rankl and Wnt4 transcript levels increased 22.4 and 5.8‐fold over the vehicle‐treated control, respectively.
(§2) Animal experiments were performed in accordance with protocol approved by the Service de la Consommation et des Affaires vétérinaires of Canton de Vaud (VD 1865.3, VD 1865.4). NOD. Cg‐Prkdc^scid Il2rg^tm1Wjl/SzJ mice (Charles River), BalbC, and C57Bl6 breeders were purchased from Jackson Laboratories. Mammary glands were isolated from 18‐ to 35‐week‐old mice, lymph nodes removed, minced with surgical blades, and digested in DMEM/F12, 1% penicillin/streptomycin B with collagenase A 0.25 mg/ml (Roche). […] Fat was removed, and pellet containing organoids washed with phosphate‐buffered saline (PBS), resuspended 5 min in 3 ml red cell blood lysis buffer and washed twice with PBS.
(§3) Human breast microstructures and mouse organoids were homogenized in Trizol (Invitrogen). Aqueous phase containing RNA was chloroform extracted and processed with miRNeasy extraction kit (Qiagen). cDNA was synthesized using random p(dN)6 primers (Roche) and MMLV reverse transcriptase (Invitrogen). SYBR Green PCR Core Reagent System (Qiagen) was used for semi‐quantitative real time (RT‐PCR) using the following primers.

Wnt4 [2] = experiment: Wnt4 transcript levels by RT-PCR in mouse mammary organoids stimulated ex vivo; assay type: cell-based; details: for Wnt4 transcript levels over vehicle-treated control: BalbC females, 6 h of stimulation
Method: as §1, §2, §3

[3] = tested on: endogenous hormone levels in mice; experiment: Endogenous steroid hormone plasma levels in treated host mice by LC-MS; assay type: in vivo, mouse; details: xenografted NSG females with pellets
Text: Next, we assessed whether progesterone and progestins differentially affected endogenous hormone levels in mice. Plasma 17‐β‐estradiol levels were not affected by any of the treatments (Fig 4H). […] Plasma testosterone levels were not altered by any treatment with the exception of DSP, which decreased them (Fig 4H). Thus, prolonged exposures to progestins differentially affect endogenous progesterone plasma levels and DSP decreases testosterone plasma levels in host mice.

KLK3 = KLK3 mRNA in xenografted HBECs by RT-PCR with human-specific primers; assay type: in vivo; details: 21 days pellets (Fig 5M)
Text: Consistent with AR and PR sharing a common hormone response element (Claessens et al, 1996), KLK3 was induced upon progestin stimulation. […] This is in agreement with previous findings that KLK3 expression is under the control of both androgens and progestins in T47D cells (Zarghami et al, 1997).
(§4) Next, we sought for a readout of in vivo cell proliferation different from radiance. […] Given that MKI67 expression could replace the luciferase measurements as a readout, we used a modified experimental setup for a second round of experiments. We derived HBECs from viably frozen mammoplasty samples (Appendix Table S3) and engrafted them to different mammary glands of NSG females without viral infection. Four months later, the 24 recipient females, each engrafted with 5 different mammoplasties received pellets containing either vehicle, progesterone, or 1 of 6 progestins for 21 days. At sacrifice, xenografted glands were histologically sectioned and cell proliferation was quantified using co‐IF with anti‐MKI67 and anti‐hECAD antibodies. For one of the mammoplasties, we were able to obtain measurements for all experimental conditions (Fig 5I). […] For the remaining mammoplasties, between 3 and 8 different experimental conditions were successfully quantified (Appendix Table S4). […] CPA (P < 0.0001) decreased proliferation, whereas CMA and DSP had no effect (Fig 5K). As AR signaling increases AR protein levels, we performed co‐IF for AR and hECAD as another means to assess AR signaling activity.
as §3

HBECs [4] = experiment: MKI67/Ki67 expression in xenografted HBECs; assay type: in vivo, human; details: 21 days pellets; for cell proliferation (KI67 and hECAD double+ cells), overall analysis: HBECs from 11 different patients; for cell proliferation (KI67 and hECAD double+ cells): one mammoplasty (M310)
Text: as §4
Tissues were fixed for 2 h at room temperature in 4% paraformaldehyde and paraffin‐embedded. Dewaxed and rehydrated paraffin sections were pretreated in 10 mM Na citrate (pH 6.0) at 95° for 20 min. Blocking was performed with 1% BSA for 60 min. Primary antibodies used were as follows: Ki67 (rabbit α‐Ki67, clone Sp6, Spring Amsbio, dilution 1:200), ER (rabbit α‐ER, clone Sp1, Zytomed RTU), PR (rabbit α‐PR, clone 1E2, Ventana RTU), AR (rabbit α‐AR, clone SP107, Thermo Fisher, diluted 1:200), CK7 (rabbit α‐CK7, clone Sp52, Abcam, diluted 1:500), CK19 (mouse KS19.2 (Z105.6), American Research Products Inc. (diluted 1:50), and mouse α‐ECAD (clone G‐10, sc‐8426, diluted 1:100). For IHC, chromogenic revelation was performed with ChromoMap DAB kit (Roche Diagnostics, Switzerland) and sections were counterstained with Mayer’s hematoxylin. For fluorescence microscopy, nuclei were counterstained with DAPI (Sigma). IHC for ER, PR, and AR was performed on Discovery Ventana ULTRA (44). IHC images were acquired on Leica DM 2000 with Leica DFC450 C camera. IF images were acquired on Zeiss LSM700 confocal microscope. Slides were scanned with Olympus VS120‐L100 slide scanner with 20×/0.75 objective and Pike F505 C Color camera. Images were loaded into QuPath using the BioFormats extension (Bankhead et al, 2017).

human breast epithelium = details: female, mouse, in vivo, 8 months
Method: All the engrafted glands were processed for histological analysis and H&E stained.
(§7) Mice were anesthetized by intraperitoneal injection with 10 mg/kg xylazine and 90 mg/kg ketamine (Graeub) and injected intraductally with 10 μl cell suspension per gland. Bioluminescence imaging was performed as described (Sflomos et al, 2016). After 3–10 weeks, when bioluminescence from individual glands reached 10^7 total flux (p/s/cm2/sr), animals were assigned to different treatment groups and hormone pellets implanted subcutaneously. Enzalutamide (Selleckchem, Catalog No. S1250) dissolved in 15% DMSO in PEG300 was injected intraperitoneally 3 times/week at 30 mg/kg.

AR = tested on: AR; design: method as in earlier work; details: various assays, ref Fuhrmann et al, 1995, Muhn et al, Bouchard, 2005, Mishell, 2008, Schneider et al, 2009, Africander et al, 2011, Louw‐du Toit et al, 2017; cited from earlier work
HBECs [5] = experiment: In vivo growth of intraductal HBEC xenografts measured by radiance; details: 60 days of treatment, subcutaneous pellets
Text: To compare the effects of progesterone and different progestins on HBECs in vivo, we infected single cell suspensions obtained from fresh reduction mammoplasty specimens with GFP‐luciferase2‐expressing lentiviruses. The infected cell mixture was grafted intraductally to up to 5 glands of as many recipients as possible. The engraftment and growth of the xenografted cells were monitored weekly by in vivo imaging. When radiance reached > 10E07 on average per mammary gland, 60‐day‐release pellets were implanted subcutaneously, usually within 3–10 weeks after cell injection. At sacrifice, blood was collected and plasma levels of the administered compounds as well as endogenous steroid hormones were determined by liquid chromatography‐mass spectrometry (LC‐MS) (Laszlo et al, 2019).
Next, the in vivo growth of HBEC xenografts stimulated with progesterone or different progestins was analyzed. […] In addition, the fold change radiance of treated versus untreated samples at endpoint was calculated (Fig 5A–C).
as §7
Pellets were prepared by mixing the required amount of part A, MP3745/E81949 and part B, MP3744/E81950 of low consistency silicon elastomer (MED‐4011) and hormone powder to homogeneity. Mix was transferred to a syringe and incubated at 37°C overnight. The silicon‐hormone mass was removed from the syringe and cut to pieces, as described (Duss et al, 2007). The original protocol was adapted for different doses as described below.

Rankl [6] = experiment: Rankl induction by R5020 or LNG in mouse mammary organoids co-treated with AR antagonists; assay type: cell-based; details: 6 h
Method: (§5) Enzalutamide (100 µM) abrogated Rankl induction by R5020 (P < 0.05) but had no effect on Wnt4 induction (Fig 1H).
(§6) Animal experiments were performed in accordance with protocol approved by the Service de la Consommation et des Affaires vétérinaires of Canton de Vaud (VD 1865.3, VD 1865.4). NOD. Cg‐Prkdc^scid Il2rg^tm1Wjl/SzJ mice (Charles River), BalbC, and C57Bl6 breeders were purchased from Jackson Laboratories. Mammary glands were isolated from 18‐ to 35‐week‐old mice, lymph nodes removed, minced with surgical blades, and digested in DMEM/F12, 1% penicillin/streptomycin B with collagenase A 0.25 mg/ml (Roche). Tissue was concomitantly stimulated with hormones for 1, 2, or 6 h and centrifuged at 652 g for 5 min. Fat was removed, and pellet containing organoids washed with phosphate‐buffered saline (PBS), resuspended 5 min in 3 ml red cell blood lysis buffer and washed twice with PBS.
as §3

Wnt4 [7] = experiment: Wnt4 induction by R5020 or LNG in mouse mammary organoids co-treated with AR antagonists; assay type: cell-based; details: antagonist 100 µM, 6 h, C57Bl6-derived organoids
Method: as §5, §6, §3

HBECs [8] = experiment: In vivo growth of HBEC xenografts treated with LNG with or without enzalutamide; design: species or system human; details: enzalutamide 30 mg/kg intraperitoneally 3 times/week, the 2 LNG-responsive PDXs
Method: Mice were anesthetized by intraperitoneal injection with 10 mg/kg xylazine and 90 mg/kg ketamine (Graeub) and injected intraductally with 10 μl cell suspension per gland. […] After 3–10 weeks, when bioluminescence from individual glands reached 10^7 total flux (p/s/cm2/sr), animals were assigned to different treatment groups and hormone pellets implanted subcutaneously. Enzalutamide (Selleckchem, Catalog No. S1250) dissolved in 15% DMSO in PEG300 was injected intraperitoneally 3 times/week at 30 mg/kg.

[9] = BalbC-derived organoids, 24 h of stimulation
[10] = antagonist 100 µM, C57Bl6-derived organoids

Row | SMILES | Rankl transcript levels over vehicle-treated control (Rankl [1]) | Rankl transcript induction (Rankl [1]; [9]) | Rankl transcript induction (Rankl [1]; C57Bl/6 mice, 6 h, 20 nM) | Wnt4 transcript levels over vehicle-treated control (Wnt4 [2]) | Wnt4 transcript induction (Wnt4 [2]; [9]) | Wnt4 transcript induction (Wnt4 [2]; C57Bl/6 mice, 6 h, 20 nM) | endogenous progesterone plasma levels (estrous cycle-related variation) [3] | KLK3 transcripts levels (KLK3) | cell proliferation (KI67 and hECAD double+ cells), overall analysis (HBECs [4]) | cell proliferation (KI67 and hECAD double+ cells) (HBECs [4]) | morphologic changes in xenografts (H&E) (human breast epithelium) | androgenic / anti-androgenic activity (AR) | growth (course of radiance) of engrafted HBECs versus control (HBECs [5]) | relative radiance at endpoint over control (FC) (HBECs [5]) | effect of AR antagonist on Rankl induction (Rankl [6]; antagonist 10 µM, n = 3) | effect of AR antagonist on Rankl induction by LNG (Rankl [6]; [10]) | effect of AR antagonist on Rankl induction by R5020 (Rankl [6]; [10]) | effect of AR antagonist on Wnt4 induction by LNG (Wnt4 [7]) | effect of AR antagonist on Wnt4 induction by R5020 (Wnt4 [7]) | effect of enzalutamide on LNG-induced proliferation (HBECs [8])
1 | C#C[C@]1(O)C=C[C@H]2[C@@H]3CCC4=CC(=O)CC[C@@H]4[C@H]3CC[C@@]21CC [GSN, gestodene] | 18.2 fold | 617.2 fold | 21.5 fold | 4.9 fold | 33.5 fold | 3.6 fold | suppressed | increased | increased | significantly increased | 3 or 4 grafts showed diffuse and in some cases marked acinar proliferation | androgenic activity | increased growth | 2.2 fold | – | – | – | – | – | –
2 | C#C[C@]1(O)CC[C@H]2[C@@H]3CCC4=CC(=O)CC[C@@H]4[C@H]3C(=C)C[C@@]21CC [DSG, 3‐ketodesogestrel] | 22.3 fold | 177.2 fold | 15.5 fold | 8.5 fold | 32.2 fold | 4.2 fold | suppressed | increased | increased | significantly increased | 3 or 4 grafts showed diffuse and in some cases marked acinar proliferation | androgenic activity | increased growth | 2 fold and 2.0 fold | – | – | – | – | – | –
3 | CNC(=O)c1ccc(N2C(=S)N(c3ccc(C#N)c(C(F)(F)F)c3)C(=O)C2(C)C)cc1F [enzalutamide] | – | – | – | – | – | – | – | – | – | – | – | – | – | – | failed to reach significance | significantly reduced | abrogated | not affected | no effect | decreased the proliferative effects of LNG
